Laboratory results published in ChEMBL document CHEMBL6153083, “Synthesis, Structural Modification, and Antismall Cell Lung Cancer Activity of 3-Arylisoquinolines with Dual Inhibitory Activity on Topoisomerase I and II” (J Med Chem, 2025).
pIC50: −log10 of the molar value.

Assays:
[1] = Antiproliferative activity against human BEAS-2B cells incubated for 72 hrs; type: toxicity, cell-based
NCI-H146 = test: Antiproliferative activity against human NCI-H146 cells incubated for 72 hrs; type: functional, cell-based; settings: NCI-H146, 72 h
NCI-H82 = test: Antiproliferative activity against human NCI-H82 cells incubated for 72 hrs; type: functional, cell-based; settings: NCI-H82, 72 h
[2] = Antiproliferative activity against human L02 cells incubated for 72 hrs; type: toxicity, cell-based
NCI-H446 = test: Antiproliferative activity against human NCI-H446 cells incubated for 72 hrs; type: functional, cell-based; settings: NCI-H446, 72 h
[3] = Antiproliferative activity against human NCI-H196 cells incubated for 72 hrs; type: functional, cell-based; settings: NCI-H196, 72 h
NCI-H209 = test: Antiproliferative activity against human NCI-H209 cells incubated for 72 hrs; type: functional, cell-based; settings: NCI-H209, 72 h
SHP77 = test: Antiproliferative activity against human SHP77 cells incubated for 72 hrs; type: functional, cell-based; settings: SHP77, 72 h
NCI-H1048 = test: Antiproliferative activity against human NCI-H1048 cells incubated for 72 hrs; type: functional, cell-based; settings: NCI-H1048, 72 h

| SMILES | pIC50 (NCI-H146) | pIC50 (NCI-H82) | pIC50 (NCI-H446) | pIC50 (NCI-H209) | pIC50 (NCI-H1048) | IC50 at 72 h [1] [µM] | IC50 at 72 h [2] [µM] | pIC50 [3] | pIC50 (SHP77) |
| --- | --- | --- | --- | --- | --- | --- | --- | --- | --- |
| CC[C@@]1(O)C(=O)OCc2c1cc1n(c2=O)Cc2cc3c(CN(C)C)c(O)ccc3nc2-1 [TOPOTECAN] | > 5.81 | 6.39 | 4.66 | < 4.00 | < 4.00 | < 0.07 | 0.26 | 4.79 | 6.72 |
| CCCC1CCN(Cc2cc3c(cc2-c2cc4ccc5c(c4cn2)OCO5)OCO3)CC1 | 4.43 | < 4.00 | 4.84 | 4.19 | < 4.00 | > 100 | 84.2 | 4.99 | 4.55 |
| ClC1CCN(Cc2cc3c(cc2-c2cc4ccc5c(c4cn2)OCO5)OCO3)CC1 | < 4.00 | < 4.00 | 4.42 | < 4.00 | < 4.00 | > 100 | > 100 | 4.20 | < 4.00 |
| CC(C)(C)C(=O)C1CCN(Cc2cc3c(cc2-c2cc4ccc5c(c4cn2)OCO5)OCO3)CC1 | < 4.00 | < 4.00 | 4.61 | < 4.00 | < 4.00 | > 100 | > 100 | < 4.00 | < 4.00 |
| c1c(CN2CC3(CCCC3)C2)c(-c2cc3ccc4c(c3cn2)OCO4)cc2c1OCO2 | 4.54 | 4.58 | 4.73 | 4.47 | 4.70 | 14.8 | > 100 | 4.80 | 4.51 |
| CC1(O)CCN(Cc2cc3c(cc2-c2cc4ccc5c(c4cn2)OCO5)OCO3)C1 (configuration not stated) | 4.70 | < 4.00 | 4.41 | 4.14 | 4.45 | 39.7 | > 100 | 4.33 | 4.49 |
| c1c(CN2CC3CC3C2)c(-c2cc3ccc4c(c3cn2)OCO4)cc2c1OCO2 (configuration not stated) | < 4.00 | 4.54 | 4.73 | 4.28 | 4.78 | 23.7 | 26.8 | 4.41 | 4.67 |
| CC(C)C1CCN(Cc2cc3c(cc2-c2cc4ccc5c(c4cn2)OCO5)OCO3)CC1 | > 5.20 | 5.77 | 5.58 | 5.16 | 5.66 | > 100 | 18.2 | 4.84 | 5.09 |
| CCC(=O)C1CCN(Cc2cc3c(cc2-c2cc4ccc5c(c4cn2)OCO5)OCO3)CC1 | 4.37 | 4.31 | 4.67 | < 4.00 | < 4.00 | > 100 | 41.7 | 4.46 | 4.58 |

Further lines, with some results ahead:

| pIC50 (NCI-H146) | pIC50 (NCI-H82) | pIC50 (NCI-H446) | pIC50 (NCI-H209) | pIC50 (NCI-H1048) | SMILES | IC50 at 72 h [1] [µM] | IC50 at 72 h [2] [µM] | pIC50 [3] | pIC50 (SHP77) |
| --- | --- | --- | --- | --- | --- | --- | --- | --- | --- |
| 4.41 | 4.41 | 4.84 | 4.30 | 4.78 | CC1CCCCN1Cc1cc2c(cc1-c1cc3ccc4c(c3cn1)OCO4)OCO2 (configuration not stated) | 19.4 | 42.4 | 4.43 | 4.39 |
| < 4.00 | 4.17 | 4.54 | 4.19 | 4.25 | CC(C)(O)C1CCN(Cc2cc3c(cc2-c2cc4ccc5c(c4cn2)OCO5)OCO3)CC1 | 30.1 | 38.2 | 4.28 | 4.39 |
| 4.93 | 4.91 | 4.77 | 4.57 | 4.70 | CN1CCC(C2CCN(Cc3cc4c(cc3-c3cc5ccc6c(c5cn3)OCO6)OCO4)CC2)CC1 | 12.2 | > 100 | 4.50 | 4.81 |
| < 4.00 | 4.24 | 4.61 | 4.30 | 4.52 | c1c(CN2CC3(CCC3)C2)c(-c2cc3ccc4c(c3cn2)OCO4)cc2c1OCO2 | 30.4 | > 100 | 4.51 | 4.42 |
